The source of these data is US7776924B2, “Nitroaniline-based alkylating agents and their use as prodrugs” (Auckland Uniservices Limited, priority 2002, dated 2010).

Marks after values point to notes of the source that are not given here.

Holding throughout (assay type): cell-based
One assay concerns SKOV3. The assay is described as follows: Cytotoxicity in wild-type (NR−) human ovarian cell line SKOV3.
Another assay has as its system WIDR. As to the kind of experiment: Cytotoxicity in wild-type (NR−) human colon cell line WIDR.
For the next assay, the system named is SC3.2. As to the kind of experiment: Cytotoxicity in NTR-transfected (NR+) human ovarian cell line SC3.2. Conditions: for IC50: SC3.2 NTR-transfected, 18 h exposure; for Ratio = IC50(NR−)/IC50(NR+) Human Ovarian: SKOV3 / SC3.2, 18 h exposure.
The test system of a further assay is WC14.10. The assay is described as follows: Cytotoxicity in NTR-transfected (NR+) human colon cell line WC14.10. Particulars: for IC50: WC14.10 NTR-transfected.
The mark [1] stands for this setting: Homo sapiens, SK-OV-3, 18 h exposure.

Turning to `CS(=O)(=O)OCCN(CCBr)c1c(C(N)=O)cc([N+](=O)[O-])cc1[N+](=O)[O-]` [IIb2, 2-[2-(Aminocarbonyl)(2-bromoethyl)-4,6-dinitroanilino]ethyl methanesulfonate], the IC50 (commonly the concentration at which inhibition is half-maximal) came to 6 µM in the assay with SKOV3 (18 h exposure), 4.3 µM in the assay with WIDR (18 h exposure), 0.007 µM with SC3.2 and 0.02 µM in the assay on WC14.10 (18 h exposure). The “Ratio = IC50(NR−)/IC50(NR+) Human Ovarian” value in the assay with SC3.2 was 762. Moreover, the “Ratio = IC50(NR−)/IC50(NR+) Human colon” value in the assay with WC14.10 (WIDR / WC14.10, 18 h exposure) turned out to be 227.
For the compound `CS(=O)(=O)OCCN(CCBr)c1c(C(=O)NCC(O)CO)cc([N+](=O)[O-])cc1[N+](=O)[O-]` (centres unmarked) [IIb6, 2-((2-Bromoethyl)-2-{[(2,3-dihydroxypropyl)amino]carbonyl}-4,6-dinitroanilino)ethyl methanesulfonate], the IC50 with SKOV3 (18 h exposure) came to 26 µM; with WIDR (18 h exposure), 11 µM; in the assay on SC3.2, 0.19 µM; in the assay on WC14.10 (18 h exposure), 0.21 µM. For the same compound, the “Ratio = IC50(NR−)/IC50(NR+) Human Ovarian” value in the assay on SC3.2 was found to be 140. Besides, in the assay on WC14.10 (WIDR / WC14.10, 18 h exposure), the “Ratio = IC50(NR−)/IC50(NR+) Human colon” value was 52.
For the compound `CS(=O)(=O)OCCN(CCBr)c1c([N+](=O)[O-])ccc(C(=O)NCCCCO)c1[N+](=O)[O-]` [IIc6, 2-((2-Bromoethyl)-3-{[(4-hydroxybutyl)amino]carbonyl}-2,6-dinitroanilino)ethyl methanesulfonate], the IC50 was 314 µM in the assay on WIDR (4 h exposure) and 20 µM with WC14.10 (4 h exposure). Moreover, the “Ratio = IC50(NR−)/IC50(NR+) Human colon” value in the assay with WC14.10 (WIDR / WC14.10, 4 h exposure) is listed as 16^f.
As for `CS(=O)(=O)OCCN(CCBr)c1cc(C(N)=O)c([N+](=O)[O-])cc1[N+](=O)[O-]` [IIa3, 2-[5-(Aminocarbonyl)(2-bromoethyl)-2,4-dinitroanilino]ethyl methanesulfonate], the IC50 in the assay with SKOV3 (18 h exposure) is 135 µM; with WIDR (18 h exposure), 80 µM; in the assay with SC3.2, 0.19 µM; with WC14.10 (18 h exposure) it was 0.22 µM. For the same compound, the “Ratio = IC50(NR−)/IC50(NR+) Human Ovarian” value in the assay with SC3.2 was 715. Besides, the “Ratio = IC50(NR−)/IC50(NR+) Human colon” value in the assay with WC14.10 (WIDR / WC14.10, 18 h exposure) came out at 387.
Turning to `CS(=O)(=O)OCCN(CCBr)c1cc(C(=O)NCC(O)CO)c([N+](=O)[O-])cc1[N+](=O)[O-]` (centres unmarked) [IIa7, 2-((2-Bromoethyl)-5-{[(2,3-dihydroxypropyl)amino]carbonyl}-2,4-dinitroanilino)ethyl methanesulfonate], the IC50 was 1110 µM with SKOV3 (18 h exposure), 804 µM in the assay on WIDR (18 h exposure), 1.74 µM in the assay with SC3.2 and 3 µM in the assay with WC14.10 (18 h exposure). The “Ratio = IC50(NR−)/IC50(NR+) Human colon” value with WC14.10 (WIDR / WC14.10, 18 h exposure) stood at 268.
For the compound `COC(=O)CCNC(=O)c1cc([N+](=O)[O-])cc([N+](=O)[O-])c1N(CCBr)CCOS(C)(=O)=O` [IIb9, Methyl 3-{[2-((2-bromoethyl){2-[(methylsulfonyl)oxy]ethyl}amino)-3,5-dinitrobenzoyl]amino}propanoate], the IC50 in the assay on SKOV3 (setting [1]) came out at 3.7 µM; with WIDR (Homo sapiens, 18 h exposure) it was 1.44 µM; with SC3.2 (Homo sapiens), 0.15 µM; in the assay on WC14.10 (Homo sapiens, 18 h exposure), 0.24 µM. Moreover, the “Ratio = IC50(NR−)/IC50(NR+) Human Ovarian” value with SC3.2 amounted to 25. Moreover, in the assay on WC14.10 (WIDR / WC14.10, 18 h exposure), the “Ratio = IC50(NR−)/IC50(NR+) Human colon” value was 6.3.
Turning to `NC(=O)c1cc(N(CCCl)CCBr)c([N+](=O)[O-])cc1[N+](=O)[O-]` [IIa2, 5-[(2-Bromoethyl)(2-chloroethyl)amino]-2,4-dinitrobenzamide], the IC50 was 226 µM in the assay with SKOV3 (setting [1]); 150 µM in the assay on WIDR (Homo sapiens, 18 h exposure); 0.84 µM in the assay with SC3.2 (Homo sapiens); 0.69 µM in the assay on WC14.10 (Homo sapiens, 18 h exposure). Further, in the assay on SC3.2, the “Ratio = IC50(NR−)/IC50(NR+) Human Ovarian” value is listed as 280. Further, the “Ratio = IC50(NR−)/IC50(NR+) Human colon” value in the assay with WC14.10 (WIDR / WC14.10, 18 h exposure) is listed as 235.
`CS(=O)(=O)OCCN(CCCl)c1ccc([N+](=O)[O-])c(C(=O)NCCCN2CCOCC2)c1[N+](=O)[O-]` [IIc9, 2-[(2-Chloroethyl)-3-({[3-(4-morpholinyl)propyl]amino}carbonyl)-2,4-dinitroanilino]ethyl methanesulfonate]: the IC50 is 433 µM in the assay on SKOV3 (18 h exposure), 262 µM in the assay with WIDR (18 h exposure), 32 µM in the assay with SC3.2 and 31 µM in the assay with WC14.10 (18 h exposure). Besides, in the assay with SC3.2, the “Ratio = IC50(NR−)/IC50(NR+) Human Ovarian” value amounted to 14. Also, the “Ratio = IC50(NR−)/IC50(NR+) Human colon” value in the assay with WC14.10 (WIDR / WC14.10, 18 h exposure) was 8.3.
`CS(=O)(=O)OCCN(CCCl)c1c(C(N)=O)cc([N+](=O)[O-])cc1[N+](=O)[O-]` [IIb1, 2-[2-(Aminocarbonyl)(2-chloroethyl)-4,6-dinitroanilino]ethyl methanesulfonate]: the IC50 came to 80 µM in the assay on SKOV3 (18 h exposure), 20 µM in the assay on WIDR (18 h exposure), 0.04 µM with SC3.2 and 0.07 µM in the assay with WC14.10 (18 h exposure). Also, the “Ratio = IC50(NR−)/IC50(NR+) Human Ovarian” value in the assay on SC3.2 stood at 1890. In addition, the “Ratio = IC50(NR−)/IC50(NR+) Human colon” value in the assay on WC14.10 (WIDR / WC14.10, 18 h exposure) worked out at 303.
As to `CS(=O)(=O)OCCN(CCCl)c1ccc([N+](=O)[O-])c(C(=O)NCC(O)CO)c1[N+](=O)[O-]` (centres unmarked) [IIc7, 2-((2-Chloroethyl)-3-{[(2,3-dihydroxypropyl)amino]carbonyl}-2,4-dinitroanilino)ethyl methanesulfonate], the IC50 in the assay with SKOV3 (18 h exposure) is 1680 µM; in the assay with WIDR (18 h exposure), 856 µM; in the assay with SC3.2, 6.6 µM; in the assay on WC14.10 (18 h exposure), 4.3 µM. Besides, the “Ratio = IC50(NR−)/IC50(NR+) Human Ovarian” value with SC3.2 is 267. In addition, the “Ratio = IC50(NR−)/IC50(NR+) Human colon” value in the assay on WC14.10 (WIDR / WC14.10, 18 h exposure) is listed as 262.
In the case of `CS(=O)(=O)OCCN(CCI)c1cc(C(N)=O)c([N+](=O)[O-])cc1[N+](=O)[O-]` [IIa4, 2-[5-(Aminocarbonyl)(2-iodoethyl)-2,4-dinitroanilino]ethyl methanesulfonate], the half-maximal inhibitory concentration (IC50) is 97 µM in the assay with SKOV3 (18 h exposure), 70 µM with WIDR (18 h exposure), 0.33 µM with SC3.2 and 0.41 µM in the assay with WC14.10 (18 h exposure). Further, in the assay on SC3.2, the “Ratio = IC50(NR−)/IC50(NR+) Human Ovarian” value amounted to 311. Besides, in the assay with WC14.10 (WIDR / WC14.10, 18 h exposure), the “Ratio = IC50(NR−)/IC50(NR+) Human colon” value is recorded as 172.
`CS(=O)(=O)OCCN(CCBr)c1c(C(=O)NCCCN2CCOCC2)cc([N+](=O)[O-])cc1[N+](=O)[O-]` [IIb7, 2-[(2-Bromoethyl)-2-({[3-(4-morpholinyl)propyl]amino}carbonyl)-4,6-dinitroanilino]ethyl methanesulfonate]: the IC50 in the assay on SKOV3 (18 h exposure) turned out to be 3.1 µM; with WIDR (18 h exposure), 0.89 µM; in the assay with SC3.2, 0.03 µM; with WC14.10 (18 h exposure), 0.05 µM. Besides, the “Ratio = IC50(NR−)/IC50(NR+) Human Ovarian” value with SC3.2 turned out to be 102. The “Ratio = IC50(NR−)/IC50(NR+) Human colon” value in the assay on WC14.10 (WIDR / WC14.10, 18 h exposure) is on record as 22.
In the case of `CS(=O)(=O)OCCN(CCBr)c1ccc([N+](=O)[O-])c(C(=O)NCC(O)CO)c1[N+](=O)[O-]` (centres unmarked) [IIc8, 2-((2-Bromoethyl)-3-{[(2,3-dihydroxypropyl)amino]carbonyl}-2,4-dinitroanilino)ethyl methanesulfonate], the IC50 in the assay on SKOV3 (18 h exposure) is 890 µM; in the assay with WIDR (18 h exposure), 214 µM; with SC3.2, 1.8 µM; in the assay on WC14.10 (18 h exposure) it was 1.5 µM. Also, the “Ratio = IC50(NR−)/IC50(NR+) Human Ovarian” value with SC3.2 worked out at 509. The “Ratio = IC50(NR−)/IC50(NR+) Human colon” value with WC14.10 (WIDR / WC14.10, 18 h exposure) amounted to 141.
As to `CS(=O)(=O)OCCN(CCCl)c1ccc([N+](=O)[O-])c(C(N)=O)c1[N+](=O)[O-]` [IIc1, 2-[3-(Aminocarbonyl)(2-chloroethyl)-2,4-dinitroanilino]ethyl methanesulfonate], the IC50 worked out at 196 µM with SKOV3 (18 h exposure), 121 µM in the assay with WIDR (18 h exposure), 0.55 µM in the assay with SC3.2 and 1 µM in the assay with WC14.10 (18 h exposure). Moreover, the “Ratio = IC50(NR−)/IC50(NR+) Human Ovarian” value in the assay with SC3.2 stood at 390. Moreover, in the assay with WC14.10 (WIDR / WC14.10, 18 h exposure), the “Ratio = IC50(NR−)/IC50(NR+) Human colon” value was 120.
